Reference: patent publication US20250161281A1, “EMOPAMIL-BINDING PROTEIN INHIBITORS AND USES THEREOF” (BIOGEN MA INC., priority 2022, published 2025)

molecular target: T1, EBP (Homo sapiens, UniProt Q15125); assay: EBP Functional Assay (EBP immunoaffinity LC-MS assay); assay type: biochemical; conditions: HEK293T cells as source of EBP enzyme; 30 min with inhibitor, then zymosterol-d5, 37° C. for 4 h; percent conversion by LC-APCI MRM MS
T1 construct: HEK293T cells were utilized as the source of EBP enzyme; endogenous in cells; host or cells: HEK293T
T1 sequence (Q15125 whole entry): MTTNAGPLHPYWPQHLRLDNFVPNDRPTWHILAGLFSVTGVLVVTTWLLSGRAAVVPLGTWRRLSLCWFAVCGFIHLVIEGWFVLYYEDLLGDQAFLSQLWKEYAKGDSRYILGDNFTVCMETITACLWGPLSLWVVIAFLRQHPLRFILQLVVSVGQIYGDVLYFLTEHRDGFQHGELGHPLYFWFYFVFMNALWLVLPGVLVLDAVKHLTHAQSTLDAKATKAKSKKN
Description: The EBP immunoaffinity (IA) LC-MS assay measures the potency of small molecule inhibitors of EBP by quantifying their concentration-dependent changes in the enzyme's substrate and product using liquid chromatography atmospheric pressure chemical ionization multiple reaction monitoring mass spectrometry (LC-APCI MRM MS). HEK293T cells were utilized as the source of EBP enzyme. The enzyme was incubated with the small molecule inhibitors at variable concentrations for 30 min. Deuterated form of EBP substrate, zymosterol-d5 (Avanti Polar Lipids, Cat #700068P-1 mg), was then added and the plate was incubated at 37° C. for 4 h. Finally, the sterol isomers were extracted and injected to LC-APCI MRM MS. MRM transition used for the quantification for both zymosterol and dihydrolathosterol (substrate and product of EBP enzymatic reaction, respectively) is 372.3-203.2, CE 30 and DP 80 in positive ion mode. Percent conversion of the zymosterol-d5 to dehydrolathosterol-d5 was used to derive IC50 curves. Tasin-1 (1′-[(4-Methoxyphenyl)sulfonyl]-4-methyl-1,4′-bipiperidine, CAS 792927-06-1) was used as the reference small molecule inhibitor. Percent conversion versus the compound concentration data were fit to the following 4-parameter logistic model to generate IC50 curves: […]

Row | SMILES | IC50
1 | Cc1ccc(S(=O)(=O)N2[C@@H]3CC[C@H]2C[C@H](N2CCC(C)CC2)C3)c(C)n1 [Example 47, (1R,3s,5S)-8-((2,6-Dimethylpyridin-3-yl)sulfonyl)-3-(4-methylpiperidin-1-yl)-8-azabicyclo[3.2.1]octane] | 0.05 to 0.15 µM
2 | COCCC1CN(C2CC3CCC(C2)N3S(=O)(=O)c2ccc(OC(F)F)cc2)C1 (centres unmarked) [Example 54, 8-((4-(Difluoromethoxy)phenyl)sulfonyl)-3-(3-(2-methoxyethyl)azetidin-1-yl)-8-azabicyclo[3.2.1]octane] | 0.15 to 2 µM
3 | Cc1cnn(C)c1S(=O)(=O)N1[C@@H]2CC[C@H]1C[C@H](N1CCC(C)CC1)C2 [Example 12, (1R,3s,5S)-8-((1,4-Dimethyl-1H-pyrazol-5-yl)sulfonyl)-3-(4-methylpiperidin-1-yl)-8-azabicyclo[3.2.1]octane] | < 0.05 µM
4 | O=S(=O)(c1ccc(OC(F)F)cc1)N1[C@@H]2CC[C@H]1C[C@@H](NCC1(F)COC1)C2 (single isomer, unassigned) [Example 71] | 0.15 to 2 µM
5 | CC1CCN([C@@H]2C[C@H]3CC[C@@H](C2)N3S(=O)(=O)c2ccc3c(c2)COCC3)CC1 [Example 7, (1R,3s,5S)-8-(Isochroman-7-ylsulfonyl)-3-(4-methylpiperidin-1-yl)-8-azabicyclo[3.2.1]octane] | < 0.05 µM
6 | CC1CCN([C@@H]2C[C@H]3CC[C@@H](C2)N3S(=O)(=O)c2cn(-c3ccccc3)nn2)CC1 [Example 44, (1R,3s,5S)-3-(4-Methylpiperidin-1-yl)-8-((1-phenyl-1H-1,2,3-triazol-4-yl)sulfonyl)-8-azabicyclo[3.2.1]octane] | 0.15 to 2 µM
7 | O=S(=O)(c1ccc(OC(F)F)cc1)N1[C@@H]2CC[C@H]1C[C@@](O)(CN1CCOCC1)C2 [Example 34, (1R,3s,5S)-8-((4-(Difluoromethoxy)phenyl)sulfonyl)-3-(morpholinomethyl)-8-azabicyclo[3.2.1]octan-3-ol] | 0.05 to 0.15 µM
8 | COc1cc(F)c(S(=O)(=O)N2[C@@H]3CC[C@H]2C[C@H](N2CCC(C)CC2)C3)c(F)c1 [Example 43, (1R,3s,5S)-8-((2,6-Difluoro-4-methoxyphenyl)sulfonyl)-3-(4-methylpiperidin-1-yl)-8-azabicyclo[3.2.1]octane] | 0.05 to 0.15 µM
9 | Cc1ccnc(-n2cc(S(=O)(=O)N3[C@@H]4CC[C@H]3C[C@H](N3CCC(C)CC3)C4)cn2)c1 [Example 41, (1R,3s,5S)-3-(4-Methylpiperidin-1-yl)-8-((1-(4-methylpyridin-2-yl)-1H-pyrazol-4-yl)sulfonyl)-8-azabicyclo[3.2.1]octane] | < 0.05 µM
10 | Cc1cc(S(=O)(=O)N2[C@@H]3CC[C@H]2C[C@H](CN2CCOCC2)C3)n(C)n1 [Example 36, 4-(((1R,3s,5S)-8-((1,3-Dimethyl-1H-pyrazol-5-yl)sulfonyl)-8-azabicyclo[3.2.1]octan-3-yl)methyl)morpholine] | < 0.05 µM
11 | CC(O)CCN[C@@H]1C[C@H]2CC[C@@H](C1)N2S(=O)(=O)c1ccc(OC(F)F)cc1 (mixture of isomers) [Example 60, rac-4-(((1R,3s,5S)-8-((4-(difluoromethoxy)phenyl)sulfonyl)-8-azabicyclo[3.2.1]octan-3-yl)amino)butan-2-ol] | 0.15 to 2 µM
12 | O=S(=O)(c1ccc(OC(F)F)cc1)N1[C@@H]2CC[C@H]1C[C@H](NCC1(O)CCOCC1)C2 [Example 18, 4-((((1R,3s,5S)-8-((4-(Difluoromethoxy)phenyl)sulfonyl)-8-azabicyclo[3.2.1]octan-3-yl)amino)methyl)tetrahydro-2H-pyran-4-ol] | < 0.05 µM
13 | CC(C)(O)CN[C@@H]1C[C@H]2CC[C@@H](C1)N2S(=O)(=O)c1ccc(OC(F)F)cc1 [Example 76, 1-(((1R,3s,5S)-8-((4-(Difluoromethoxy)phenyl)sulfonyl)-8-azabicyclo[3.2.1]octan-3-yl)amino)-2-methylpropan-2-ol] | 0.15 to 2 µM
14 | CC1CCN([C@H]2C[C@H]3CC[C@@H](C2)N3S(=O)(=O)c2ccc(OC(F)F)cc2)CC1 [Example 20, (1R,3r,5S)-8-((4-(difluoromethoxy)phenyl)sulfonyl)-3-(4-methylpiperidin-1-yl)-8-azabicyclo[3.2.1]octane] | < 0.05 µM

The remaining lines, values ahead:

Row | IC50 | SMILES
15 | < 0.05 µM | O=S(=O)(c1ccc(OC(F)F)cc1)N1C2CCC1CC(N1C3CCCC1CC(F)(F)C3)C2 (centres unmarked) [Example 16, 9-(8-((4-(Difluoromethoxy)phenyl)sulfonyl)-8-azabicyclo[3.2.1]octan-3-yl)-3,3-difluoro-9-azabicyclo[3.3.1]nonane]
16 | < 0.05 µM | O=S(=O)(c1ccc(OC(F)F)cc1)N1[C@@H]2CC[C@H]1C[C@](O)(CN1CCOCC1)C2 [Example 33, (1R,3r,5S)-8-((4-(Difluoromethoxy)phenyl)sulfonyl)-3-(morpholinomethyl)-8-azabicyclo[3.2.1]octan-3-ol]
17 | < 0.05 µM | O=S(=O)(c1ccc(OC(F)F)cc1)N1C2CCC1CC(NC1CCOCC1)C2 (centres unmarked) [Example 73, 8-((4-(Difluoromethoxy)phenyl)sulfonyl)-N-(tetrahydro-2H-pyran-4-yl)-8-azabicyclo[3.2.1]octan-3-amine]
18 | 0.15 to 2 µM | O=S(=O)(c1ccc(OC(F)F)cc1)N1C2CCC1CC(N1CCC3(COC3)C1)C2 (centres unmarked) [Example 51, 6-(8-((4-(Difluoromethoxy)phenyl)sulfonyl)-8-azabicyclo[3.2.1]octan-3-yl)-2-oxa-6-azaspiro[3.4]octane]
19 | < 0.05 µM | Cc1nc(C(F)(F)F)ccc1S(=O)(=O)N1[C@@H]2CC[C@H]1C[C@@H](N1CC3(COC3)C1)C2 (single isomer, unassigned) [Example 23]
20 | 0.15 to 2 µM | Cc1ccnc(-n2cc(S(=O)(=O)N3[C@@H]4CC[C@H]3C[C@@H](N3CCC(C)CC3)C4)cn2)c1 [Example 40, (1R,3r,5S)-3-(4-methylpiperidin-1-yl)-8-((1-(4-methylpyridin-2-yl)-1H-pyrazol-4-yl)sulfonyl)-8-azabicyclo[3.2.1]octane]
21 | 0.15 to 2 µM | CC1CCN([C@@H]2C[C@H]3CC[C@@H](C2)N3S(=O)(=O)c2csc(C(F)(F)F)n2)CC1 [Example 42, 4-(((1R,3s,5S)-3-(4-Methylpiperidin-1-yl)-8-azabicyclo[3.2.1]octan-8-yl)sulfonyl)-2-(trifluoromethyl)thiazole]
22 | < 0.05 µM | O=S(=O)(c1ccc(OC(F)F)cc1)N1C2CCC1CC(NCC1CCOCC1)C2 (centres unmarked) [Example 19, 8-((4-(Difluoromethoxy)phenyl)sulfonyl)-N-((tetrahydro-2H-pyran-4-yl)methyl)-8-azabicyclo[3.2.1]octan-3-amine]
23 | 0.05 to 0.15 µM | O=S(=O)(c1ccc(OC(F)F)cc1)N1C2CCC1CC(N[C@@H]1CCOC1)C2 (stereo partly drawn) [Example 70, 8-((4-(Difluoromethoxy)phenyl)sulfonyl)-N—((R)-tetrahydrofuran-3-yl)-8-azabicyclo[3.2.1]octan-3-amine]
24 | 0.05 to 0.15 µM | Cc1nc(C(F)(F)F)ccc1S(=O)(=O)N1[C@@H]2CC[C@H]1C[C@@H](NC1CC3(COC3)C1)C2 (single isomer, unassigned) [Example 69]
25 | < 0.05 µM | CC1CCN([C@@H]2C[C@H]3CC[C@@H](C2)N3S(=O)(=O)c2c3c(nn2C)CCOC3)CC1 [Example 9, 2-Methyl-3-(((1R,3s,5S)-3-(4-methylpiperidin-1-yl)-8-azabicyclo[3.2.1]octan-8-yl)sulfonyl)-2,4,6,7-tetrahydropyrano[4,3-c]pyrazole]
26 | 0.15 to 2 µM | CC(O)CNC1CC2CCC(C1)N2S(=O)(=O)c1ccc(OC(F)F)cc1 (centres unmarked) [Example 48, 1-((8-((4-(Difluoromethoxy)phenyl)sulfonyl)-8-azabicyclo[3.2.1]octan-3-yl)amino)propan-2-ol]
27 | < 0.05 µM | Cc1nonc1S(=O)(=O)N1[C@@H]2CC[C@H]1C[C@@H](N1CCC(C)CC1)C2 [Example 1, 3-Methyl-4-(((1R,3r,5S)-3-(4-methylpiperidin-1-yl)-8-azabicyclo[3.2.1]octan-8-yl)sulfonyl)-1,2,5-oxadiazole]
28 | < 0.05 µM | COCn1ncc(Cl)c1S(=O)(=O)N1[C@@H]2CC[C@H]1C[C@H](N1CCC(C)CC1)C2 [Example 4, (1R,3s,5S)-8-((4-Chloro-1-(methoxymethyl)-1H-pyrazol-5-yl)sulfonyl)-3-(4-methylpiperidin-1-yl)-8-azabicyclo[3.2.1]octane]
29 | < 0.05 µM | COC(C)C(C)NC1CC2CCC(C1)N2S(=O)(=O)c1ccc(OC(F)F)cc1 (centres unmarked) [Example 55, 8-((4-(Difluoromethoxy)phenyl)sulfonyl)-N-(3-methoxybutan-2-yl)-8-azabicyclo[3.2.1]octan-3-amine]
30 | < 0.05 µM | O=S(=O)(c1ccc(OC(F)F)cc1)N1[C@@H]2CC[C@H]1C[C@H](NCC1CCOCC1)C2 [Example 29, (1R,3s,5S)-8-((4-(Difluoromethoxy)phenyl)sulfonyl)-N-((tetrahydro-2H-pyran-4-yl)methyl)-8-azabicyclo[3.2.1]octan-3-amine]
31 | < 0.05 µM | CC1CCN([C@H]2C[C@H]3CC[C@@H](C2)N3S(=O)(=O)c2cnc(C3CCOCC3)o2)CC1 [Example 2, 5-(((1R,3r,5S)-3-(4-Methylpiperidin-1-yl)-8-azabicyclo[3.2.1]octan-8-yl)sulfonyl)-2-(tetrahydro-2H-pyran-4-yl)oxazole]
32 | < 0.05 µM | CC1(CN[C@@H]2C[C@H]3CC[C@@H](C2)N3S(=O)(=O)c2ccc(OC(F)F)cc2)COC1 [Example 28, (1R,3s,5S)-8-((4-(Difluoromethoxy)phenyl)sulfonyl)-N-((3-methyloxetan-3-yl)methyl)-8-azabicyclo[3.2.1]octan-3-amine]
